Data from patent publication US7098248B2, “Beta-adrenergic blockade reversal of catabolism after severe burn” (Research Development Foundation, priority 2001, dated 2006).
“Also recorded” adds a separate entry of the source.

Legend:
[1] = test system: severely burned (>40% total body surface area) children; assay: Vital signs (hourly heart rate, blood pressure, temperature)
[2] = test system: severely burned (>40% total body surface area) children; assay: Serum glucose, potassium and hormone values; settings: result in words
[3] = test system: severely burned (>40% total body surface area) children; assay: Lean body mass by dual image x-ray absorptiometry (DEXA); assay type: in vivo, human
Method: (§1) Two weeks after treatment was started, a second series of metabolic and protein kinetic studies was performed. Subjects who received at least a four-week treatment course underwent a second whole-body potassium measurement. At discharge, subjects underwent body composition scanning by a dual image x-ray absorptiometry.
Total body lean mass and fat mass were measured by dual image x-ray absorptometry. A Hologic model QDR-4500W DEXA (Hologic Inc, Waltham, Mass.) with the pediatric software package was used to measure body composition.

[4] = test system: severely burned (>40% total body surface area) children; assay: Stable isotope cross-leg skeletal muscle protein kinetic study
[5] = test system: severely burned (>40% total body surface area) children; assay: Fat-free mass by whole body potassium 40 counting; assay type: in vivo, human
Method: as §1
Determination of Fat-Free Mass using Potassium 40 Whole Body Counting. Fat-Free Mass was determined by Whole Body Potassium 40 (^40K) scintillation counting in a heavily shielded low background noise counting room, a 32 NaI detector array, and computed data analysis which has been validated for use in children.^20,21 The counting precision of the instrument used is <1.5%, which was calibrated daily using BOMAB Phantoms with simulated fat overlays. All studies were done after feedings and IV fluids were discontinued to minimize exogenous potassium contamination.

[6] = test system: severely burned (>40% total body surface area) children; assay: Clinical safety: sepsis, held doses, complications during hospitalization; assay type: in vivo, human
[7] = test system: severely burned (>40% total body surface area) children; assay: Energy expenditure by metabolic cart (indirect calorimetry); assay type: in vivo, human
Method: Between midnight and 5 AM on the day of study, oxygen consumption (VO2), carbon dioxide production (VCO2), respiratory quotient (RQ) and resting energy expenditure (REE) were determined with a metabolic cart (Sensormedics Model 2900; Yorba Linda, Calif.) at 30° C. ambient room temperature during continuous feeding.

[8] = result in words, listed as propranolol
[9] = two weeks of oral propranolol, mean ± SEM
[10] = after treatment, n = 11, model derived, mean, listed as heads read shifted one entry
[11] = between metabolic studies, result in words

Serum potassium values vs non-treated group [2]: higher
SMILES: CC(C)NCC(O)COc1cccc2ccccc12 (stereo not drawn) [Propranolol, propranolol]
Heart rates vs baseline and control group ([1]; during beta blockade, p<0.05, result in words): lower than baseline and lower than those of the control group
Decrease in heart rate compared with patient's own baseline and with non-treated controls ([1]; oral propranolol titrated, p=0.03): 20%
Blood pressure vs non-treated group / with treatment [1, 8]: not statistically different; also recorded: no significant decrease
Diastolic blood pressure, change from baseline [1, 9]: −5 ± 5 mm/mHg
Mean arterial pressure, change from baseline [1, 9]: 1 ± 8 mHg
Systolic blood pressure, change from baseline [1, 9]: −4 ± 5 mHg
Improvement of lean body mass percentage vs non-treated control group ([3]; at discharge, p=0.01): ~6%
Lean body mass percentage ([3]; at full healing and discharge, 9 treated subjects): 79.1±1.2%
FSR, fractional synthetic rate, rate of incorporation of tracer into muscle over time ([4]; after treatment, n = 11, mean): 0.34 %/hr
FM,A, inward transport into myocyte [4, 10]: 0.264 μmol Phe/min/100 ml leg
FM,O, muscle protein breakdown [4, 10]: 0.287 μmol Phe/min/100 ml leg
FO,M, muscle protein synthesis [4, 10]: 0.337 μmol Phe/min/100 ml leg
FV,A, A→V shunt past muscle [4, 10]: 0.821 μmol Phe/min/100 ml leg
FV,M, outward transport from myocyte [4, 10]: 0.214 μmol Phe/min/100 ml leg
Fin, amino acid inflow into leg via femoral artery [4, 10]: 1.085 μmol Phe/min/100 ml leg
Fout, amino acid outflow from leg via femoral vein [4, 10]: 1.034 μmol Phe/min/100 ml leg
Rd, rate of disappearance, approximating protein synthesis [4, 10]: 0.157 μmol Phe/min/100 ml leg
Protein synthesis measured by direct incorporation of the tracer ([4]; long-term β-blockade, result in words): increased
Muscle protein net balance from baseline and vs non-treated controls ([4]; result in words): improved
Muscle protein net balance from baseline and vs non-treated controls [4, 8]: achieved anabolic levels
Loss of fat free mass ([5]; 4 weeks of treatment, twelve propranolol subjects, p=0.003 vs controls): 1%
Fat free mass by whole body potassium counter ([5]; four weeks of treatment, result in words): did not change; also recorded: preserved
Subjects who developed sepsis ([6]; during hospitalization, p=1.0 vs controls): 4 of 13
Subjects in whom one or more doses were held temporarily for a mean arterial pressure between 60 and 65 ([6]; during treatment course): 3 of 13
Asthma ([6]; result in words): No asthma occurred
Evidence of tissue hypoperfusion (wound conversion to full thickness, metabolic acidosis) ([6]; result in words): No other direct or indirect evidence of tissue hypoperfusion
Negative clinical sequela resulting from β-blockade ([6]; result in words): No negative clinical sequela
Carbon dioxide production vs non-treated group [7, 11]: significant decreases
Oxygen consumption vs non-treated group [7, 11]: significant decreases
Respiratory quotient [7, 11]: did not change
Resting energy expenditure vs baseline / non-treated group [7, 8]: lower than baseline and lower than those of the control group; also recorded: significant decreases
Carbon dioxide production, change from baseline [7, 9]: −64 ± 22
Oxygen consumption, change from baseline [7, 9]: −56 ± 22
Respiratory quotient, change from baseline [7, 9]: −0.1 ± 0.1
Resting energy expenditure, change from baseline [7, 9]: −422 ± 197
